In ChEMBL document CHEMBL2406991, “A novel series of metabotropic glutamate receptor 5 negative allosteric modulators based on a 4,5,6,7-tetrahydropyrazolo[1,5-a]pyridine core” (Bioorg Med Chem Lett, 2013):
≈ marks a conversion by molar mass, not a printed value.

What was measured:
[1] = target: Metabotropic glutamate receptor 5 (Rattus norvegicus, UniProt P31424); experiment: Negative allosteric modulation of rat mGluR5 receptor expressed in HEK293 cells assessed as intracellular calcium flux after 170 seconds by FLIPR assay; type: functional, cell-based
[2] = target: T1, Cytochrome P450 1A2 (Homo sapiens, UniProt P05177); experiment: Inhibition of CYP1A2 (unknown origin); type: ADME
T1 sequence (P05177 whole entry): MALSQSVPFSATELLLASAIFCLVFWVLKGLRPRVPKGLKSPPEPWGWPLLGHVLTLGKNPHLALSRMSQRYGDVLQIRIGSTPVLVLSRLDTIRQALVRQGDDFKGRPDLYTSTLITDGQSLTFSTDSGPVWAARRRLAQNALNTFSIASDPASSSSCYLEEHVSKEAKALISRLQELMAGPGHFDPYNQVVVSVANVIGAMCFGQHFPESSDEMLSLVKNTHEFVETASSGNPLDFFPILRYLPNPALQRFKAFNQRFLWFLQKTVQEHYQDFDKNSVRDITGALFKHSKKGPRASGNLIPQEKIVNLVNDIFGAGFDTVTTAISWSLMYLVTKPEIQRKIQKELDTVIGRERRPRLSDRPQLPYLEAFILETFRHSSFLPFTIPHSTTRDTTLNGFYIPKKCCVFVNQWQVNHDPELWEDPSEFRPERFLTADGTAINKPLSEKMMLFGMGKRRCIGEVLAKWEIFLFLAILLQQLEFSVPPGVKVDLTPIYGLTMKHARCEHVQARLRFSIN

[3] = Kinetic solubility of the compound in DMSO at pH 7.4; type: physicochemical; conditions: read-out: Kinetic_solubility
[4] = Intrinsic clearance in human microsomes measured per mg of protein; type: ADME, Microsome
[5] = target: Cytochrome P450 2D6 (Homo sapiens, UniProt P10635); experiment: Inhibition of CYP2D6 (unknown origin); type: ADME
[6] = target: Cytochrome P450 2C9 (Homo sapiens, UniProt P11712); experiment: Inhibition of CYP2C9 (unknown origin); type: ADME
[7] = Kinetic solubility of the compound in DMSO at pH 1; type: physicochemical; conditions: read-out: Kinetic_solubility
[8] = target: Metabotropic glutamate receptor 5 (Rattus norvegicus) (UniProt P31424); experiment: Inhibition of rat mGluR5 receptor expressed in HEK293 cells at 30 uM relative to control; type: cell-based
[9] = Intrinsic clearance in rat microsomes measured per mg of protein; type: ADME, Microsome
[10] = target: Cytochrome P450 3A4 (Homo sapiens, UniProt P08684); experiment: Inhibition of CYP3A4 (unknown origin); type: ADME
[11] = target: Metabotropic glutamate receptor 5 (Rattus norvegicus) (UniProt P31424); experiment: Displacement of [3H]MPEP from mGluR5 receptor in Sprague-Dawley rat cortical homogenate after 1 hr by liquid scintillation spectrometric analysis
[12] = test system: Plasma; experiment: Metabolic stability in rat plasma matrix; type: ADME, cell-free

Sequence of Metabotropic glutamate receptor 5 (Rattus norvegicus) (P31424 21-1203 limits assumed): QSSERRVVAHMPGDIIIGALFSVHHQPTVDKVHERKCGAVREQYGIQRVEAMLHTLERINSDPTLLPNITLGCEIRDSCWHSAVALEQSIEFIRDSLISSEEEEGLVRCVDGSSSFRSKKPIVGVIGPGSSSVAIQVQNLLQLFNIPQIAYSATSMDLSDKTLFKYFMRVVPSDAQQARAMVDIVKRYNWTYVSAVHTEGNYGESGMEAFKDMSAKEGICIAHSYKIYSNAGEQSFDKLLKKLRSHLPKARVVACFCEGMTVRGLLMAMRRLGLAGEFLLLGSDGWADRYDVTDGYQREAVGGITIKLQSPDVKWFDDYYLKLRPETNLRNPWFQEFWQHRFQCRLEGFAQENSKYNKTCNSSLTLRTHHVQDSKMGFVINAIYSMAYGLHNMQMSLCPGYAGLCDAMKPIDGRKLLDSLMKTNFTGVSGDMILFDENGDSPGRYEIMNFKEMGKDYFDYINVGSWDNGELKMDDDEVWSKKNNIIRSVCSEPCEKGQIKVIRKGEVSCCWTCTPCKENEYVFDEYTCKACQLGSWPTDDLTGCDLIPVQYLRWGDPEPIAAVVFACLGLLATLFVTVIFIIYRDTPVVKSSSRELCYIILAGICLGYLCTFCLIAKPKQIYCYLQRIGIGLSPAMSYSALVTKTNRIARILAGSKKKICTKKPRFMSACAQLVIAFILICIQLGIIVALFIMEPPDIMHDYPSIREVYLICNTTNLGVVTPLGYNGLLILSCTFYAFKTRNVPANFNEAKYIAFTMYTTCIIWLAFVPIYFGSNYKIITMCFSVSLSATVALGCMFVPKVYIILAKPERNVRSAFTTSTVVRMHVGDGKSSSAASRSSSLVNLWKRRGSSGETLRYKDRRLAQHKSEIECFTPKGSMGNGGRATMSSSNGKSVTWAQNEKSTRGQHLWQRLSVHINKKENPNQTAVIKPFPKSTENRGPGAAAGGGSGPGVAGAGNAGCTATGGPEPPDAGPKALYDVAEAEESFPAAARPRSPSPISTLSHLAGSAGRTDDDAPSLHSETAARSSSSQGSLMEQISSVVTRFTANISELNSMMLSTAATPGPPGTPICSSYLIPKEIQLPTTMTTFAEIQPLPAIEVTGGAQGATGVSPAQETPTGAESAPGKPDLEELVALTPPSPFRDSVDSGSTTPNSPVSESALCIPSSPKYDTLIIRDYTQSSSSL
Sequence of Metabotropic glutamate receptor 5 (P31424 whole entry): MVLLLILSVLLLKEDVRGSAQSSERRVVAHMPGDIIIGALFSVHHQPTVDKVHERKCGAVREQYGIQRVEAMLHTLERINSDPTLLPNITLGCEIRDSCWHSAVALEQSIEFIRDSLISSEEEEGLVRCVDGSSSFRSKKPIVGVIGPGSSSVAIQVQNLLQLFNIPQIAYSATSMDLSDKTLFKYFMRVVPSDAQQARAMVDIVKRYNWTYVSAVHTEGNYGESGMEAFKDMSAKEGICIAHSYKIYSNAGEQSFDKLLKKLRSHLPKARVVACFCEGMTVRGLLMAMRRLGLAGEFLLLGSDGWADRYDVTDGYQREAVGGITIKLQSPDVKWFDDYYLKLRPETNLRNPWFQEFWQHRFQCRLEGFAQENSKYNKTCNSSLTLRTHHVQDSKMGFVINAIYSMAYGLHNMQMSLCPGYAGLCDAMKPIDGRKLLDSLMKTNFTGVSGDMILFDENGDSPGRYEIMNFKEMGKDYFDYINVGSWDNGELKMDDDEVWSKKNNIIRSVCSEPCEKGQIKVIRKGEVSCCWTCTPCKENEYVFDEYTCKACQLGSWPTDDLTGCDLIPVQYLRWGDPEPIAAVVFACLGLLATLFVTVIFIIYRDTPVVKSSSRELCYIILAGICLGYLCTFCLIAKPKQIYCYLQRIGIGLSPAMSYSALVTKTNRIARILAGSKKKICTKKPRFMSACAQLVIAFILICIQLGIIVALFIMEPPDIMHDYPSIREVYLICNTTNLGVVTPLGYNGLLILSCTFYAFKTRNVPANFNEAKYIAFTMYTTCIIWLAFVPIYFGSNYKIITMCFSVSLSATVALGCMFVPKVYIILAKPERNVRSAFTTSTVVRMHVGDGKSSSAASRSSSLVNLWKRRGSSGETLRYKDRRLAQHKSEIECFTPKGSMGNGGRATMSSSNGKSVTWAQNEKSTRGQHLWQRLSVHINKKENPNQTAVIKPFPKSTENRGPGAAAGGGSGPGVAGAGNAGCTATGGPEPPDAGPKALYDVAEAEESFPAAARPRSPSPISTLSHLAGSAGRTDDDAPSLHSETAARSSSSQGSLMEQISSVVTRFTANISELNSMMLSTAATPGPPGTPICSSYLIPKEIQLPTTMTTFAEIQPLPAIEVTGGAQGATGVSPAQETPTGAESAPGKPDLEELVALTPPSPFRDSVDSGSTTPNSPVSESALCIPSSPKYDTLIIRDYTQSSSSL
Sequence of Cytochrome P450 3A4 (P08684 whole entry): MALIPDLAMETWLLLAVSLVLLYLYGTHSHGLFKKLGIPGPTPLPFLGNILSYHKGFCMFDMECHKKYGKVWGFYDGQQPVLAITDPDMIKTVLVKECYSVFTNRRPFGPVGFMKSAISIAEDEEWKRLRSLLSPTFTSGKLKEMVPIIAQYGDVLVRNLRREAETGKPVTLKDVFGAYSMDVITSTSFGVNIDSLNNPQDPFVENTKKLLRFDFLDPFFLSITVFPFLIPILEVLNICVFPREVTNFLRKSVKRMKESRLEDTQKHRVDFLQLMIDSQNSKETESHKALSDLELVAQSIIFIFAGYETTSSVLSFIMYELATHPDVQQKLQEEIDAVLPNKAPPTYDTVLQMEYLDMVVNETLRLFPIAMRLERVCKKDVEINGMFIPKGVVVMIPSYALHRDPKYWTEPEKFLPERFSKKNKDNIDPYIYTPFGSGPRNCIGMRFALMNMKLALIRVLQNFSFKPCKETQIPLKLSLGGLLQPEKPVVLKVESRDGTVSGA
Sequence of Cytochrome P450 2D6 (P10635 whole entry): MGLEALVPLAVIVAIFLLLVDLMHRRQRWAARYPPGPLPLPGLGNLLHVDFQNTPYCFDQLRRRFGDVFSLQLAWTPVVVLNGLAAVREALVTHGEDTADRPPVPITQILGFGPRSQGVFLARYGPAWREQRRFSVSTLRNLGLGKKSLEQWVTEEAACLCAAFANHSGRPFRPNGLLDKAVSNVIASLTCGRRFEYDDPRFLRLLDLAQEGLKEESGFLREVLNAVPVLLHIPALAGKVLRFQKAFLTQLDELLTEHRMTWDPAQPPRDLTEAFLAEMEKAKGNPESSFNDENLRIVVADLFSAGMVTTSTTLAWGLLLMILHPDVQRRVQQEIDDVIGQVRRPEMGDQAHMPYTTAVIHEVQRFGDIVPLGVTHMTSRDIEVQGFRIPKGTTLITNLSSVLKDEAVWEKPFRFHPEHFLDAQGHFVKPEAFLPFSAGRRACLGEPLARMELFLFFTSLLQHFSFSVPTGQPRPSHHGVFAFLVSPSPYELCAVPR
Sequence of Cytochrome P450 2C9 (P11712 whole entry): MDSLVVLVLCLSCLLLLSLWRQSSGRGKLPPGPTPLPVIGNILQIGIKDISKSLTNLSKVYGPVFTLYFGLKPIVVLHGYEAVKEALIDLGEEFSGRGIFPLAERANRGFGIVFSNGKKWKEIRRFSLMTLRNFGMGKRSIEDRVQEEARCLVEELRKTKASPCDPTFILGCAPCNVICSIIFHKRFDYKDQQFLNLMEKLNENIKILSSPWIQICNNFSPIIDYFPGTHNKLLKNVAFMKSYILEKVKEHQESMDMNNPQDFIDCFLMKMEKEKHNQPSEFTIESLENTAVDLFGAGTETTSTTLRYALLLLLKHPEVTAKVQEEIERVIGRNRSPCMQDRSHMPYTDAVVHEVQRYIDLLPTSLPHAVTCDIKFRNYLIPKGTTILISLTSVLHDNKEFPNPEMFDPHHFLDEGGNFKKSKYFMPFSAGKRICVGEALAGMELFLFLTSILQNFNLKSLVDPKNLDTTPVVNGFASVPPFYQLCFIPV

## Clc1ccccc1-c1cc2n(n1)CCCC2
[1]; read-out: IC50
  IC50: 2.65 µM

## Cc1cccnc1NC(=O)c1cc2n(n1)CCCC2
[1]; hek293
  IC50: Not Active

## Clc1ccnc(COc2cc3n(n2)CCCC3)c1
[1]; read-out: IC50
  IC50: > 10 µM

## COc1cccc(-c2cc3n(n2)CCCC3)c1
[1]; read-out: IC50
  IC50: 4.5 µM

## c1ccc(-c2cc3n(n2)CCCC3)cc1
[1]; read-out: IC50
  IC50: 1.89 µM

## Clc1ccnc(-c2cc3n(n2)CCCC3)c1
[1]; read-out: IC50
  IC50: 0.675 µM

## FC(F)(F)c1cccc(-c2cc3n(n2)CCCC3)c1
[1]; read-out: IC50
  IC50: 3.99 µM

## Clc1ccc(-c2cc3n(n2)CCCC3)nc1
[1]; read-out: IC50
  IC50: 0.669 µM

## c1ccc(-c2cc3n(n2)CCCC3)nc1
[2]
  INH: > 10 µM
[3]
  solubility kinetic: 0.18 mg/mL (≈ 903 µM)
[4]
  microsomal CLint: 97 µL/min/mg
[1]; read-out: IC50
  IC50: 1.29 µM
[5]
  INH: > 10 µM
[6]
  INH: > 10 µM
[7]
  solubility kinetic: 0.17 mg/mL (≈ 853 µM)
[8]
  inhibition: > 99%
[9]
  microsomal CLint: 118 µL/min/mg
[10]
  INH: > 10 µM
[11]
  INH: 1180 nM

## COc1cccnc1NC(=O)c1cc2n(n1)CCCC2
[1]; hek293
  IC50: Not Active

## N#Cc1ccc(-c2cc3n(n2)CCCC3)nc1
[1]; read-out: IC50
  IC50: > 10 µM

## c1ccc(COc2cc3n(n2)CCCC3)nc1
[1]; read-out: IC50
  IC50: 2.5 µM

## COc1cccc(NC(=O)c2cc3n(n2)CCCC3)n1
[1]; hek293
  IC50: Not Active

## Cc1cccc(COc2cc3n(n2)CCCC3)c1
[1]; read-out: IC50
  IC50: 0.769 µM

## Clc1ccc(-c2cc3n(n2)CCCC3)cc1
[1]; read-out: IC50
  IC50: 4.23 µM

## N#Cc1ccc(NC(=O)c2cc3ccccn3n2)nc1
[1]; read-out: IC50
  IC50: 1.81 µM

## Fc1cccc(-c2cc3n(n2)CCCC3)c1
[1]; read-out: IC50
  IC50: 1.57 µM

## N#Cc1ccccc1COc1cc2n(n1)CCCC2
[1]; hek293
  IC50: Not Active

## Cc1cccnc1-c1cc2n(n1)CCCC2
[1]; hek293
  IC50: Not Active

## Cc1ccnc(NC(=O)c2cc3n(n2)CCCC3)c1
[1]; hek293
  IC50: Not Active

## N#Cc1ccc(COc2cc3n(n2)CCCC3)cc1
[1]; read-out: IC50
  IC50: 1.61 µM

## Cc1cc(C(=O)Nc2ccc(C#N)cn2)nn1C
[4]
  microsomal CLint: < 5 µL/min/mg
[1]; read-out: IC50
  IC50: 2.62 µM
[8]
  inhibition: > 99%
[9]
  microsomal CLint: < 5 µL/min/mg

## Clc1cccc(-c2cc3n(n2)CCCC3)c1
[2]
  INH: < 0.75 µM
[3]
  solubility kinetic: 0.02 mg/mL (≈ 85.9 µM)
[4]
  microsomal CLint: 386 µL/min/mg
[1]; read-out: IC50
  IC50: 0.077 µM
[7]
  solubility kinetic: 0.11 mg/mL (≈ 473 µM)
[8]
  inhibition: > 99%
[9]
  microsomal CLint: 384 µL/min/mg
[11]
  INH: 401 nM

## O=C(Nc1ncccc1O)c1cc2n(n1)CCCC2
[1]; read-out: IC50
  IC50: > 10 µM

## N#Cc1ccc(NC(=O)c2cc3n(n2)CCCC3)nc1
[2]
  INH: > 10 µM
[4]
  microsomal CLint: 83 µL/min/mg
[1]; read-out: IC50
  IC50: 0.09 µM
[5]
  INH: > 10 µM
[6]
  INH: > 10 µM
[8]
  inhibition: > 99%
[10]
  INH: > 10 µM
[12]
  Stability: Unstable
[11]
  INH: 151 nM

## CN(C(=O)c1cc2n(n1)CCCC2)c1ccccn1
[1]; hek293
  IC50: Not Active

## Nc1cccc(COc2cc3n(n2)CCCC3)n1
[1]; hek293
  IC50: Not Active
